Test in all cases: inhibition of tumour cell growth, NCI panel, 48 h
Assay [1] concerns SF-295 CNS.
Assay [2] deals with A549 NSCLC.
Assay [3] has as its system HCC-2998 colon.
Assay [4] has as its system SN12C renal.
The subject of assay [5] is SW-620 colon.
Assay [6] relates to COLO 205 colon.
Assay [7] has as its system KM20L2 colon.
Assay [8] concerns M19-MEL melanoma.
Assay [9] relates to HS 578T breast.
Assay [10] deals with T-47D breast.

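Where inhibition never reached the appropriate level, the endpoint shown equals the highest concentration tested. Otherwise, values were interpolated linearly from a five-concentration, 48-hour dose response in 96-well plates. At the GI50, growth is halved. TGI marks complete inhibition of growth.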

For `CC1(C)C2CCC13CS(=O)(=O)N1O[C@]13C(=O)O2` (some centres not stated), the TGI in [1], in [2], in assay [3], in assay [4], in assay [5] and in assay [6] was over 100 µM each time. Besides, the TGI in [7] and in assay [8] was over 100 µM throughout.
`O=C(O)/C(Cl)=C(\Cl)C(=O)Nc1ccc(Cl)c(Cl)c1Cl`: the TGI in assay [1] came to 33 µM; in [2], 35.2 µM; in [3], 35.1 µM; in [4] it was 36.7 µM; in assay [5], 35.3 µM; in [6] it was 34.8 µM. The values for the TGI in assay [7] and in [8] were 44.7 µM and 30.8 µM, respectively.
On to `Cc1cc(N(CCC#N)CCC#N)ccc1/C=C1/N=C(c2ccccc2)N(N)C1=O`, for which the TGI in assay [1], in assay [2], in [3], in [4], in assay [5] and in [6] was over 100 µM throughout. Further, the TGI in assay [7] and in assay [8] was over 100 µM throughout.
In the case of `Cn1c2ccccc2n2c(=O)c3c(c(C#N)c12)CCCC3`, the TGI in assay [1], in [2], in assay [3], in assay [4], in [5] and in assay [6] was over 100 µM each time. In addition, the TGI in assay [7] and in assay [8] was over 100 µM throughout.
`Cc1cc2c(c(C(=O)O)c1C)-c1cccc(F)c1C2=O`: the TGI in assay [1], in [2], in assay [3], in [4], in [5] and in assay [6] was over 100 µM each time. Moreover, the TGI in [7] and in [8] was over 100 µM each time.
As to `O=P1(Oc2ccccc2)C(c2ccccc2)C(c2ccccc2)=NN1c1ccccc1` (configuration not stated), the TGI in assay [1] was 89.5 µM; in assay [2], 93.8 µM; in assay [3] it was 89.8 µM; in assay [4], 94.3 µM; in assay [5], 53.1 µM; in assay [6], 36.4 µM. Further, the TGI in assay [7] stood at 44.9 µM; in [8] it was 54.9 µM.
As to `CC1(C)OCC(C(O)C2OC(C)(C)OC2/C=N\O)O1` (configuration not stated), the TGI in [1], in assay [2], in assay [3], in [5], in [6] and in assay [7] was over 100 µM in each case. This compound yielded a TGI in [8] of over 100 µM.
As to `CN1COc2c(n(C)c(=O)[nH]c2=O)C1`, the TGI in assay [1], in assay [2], in assay [3], in [4], in [5] and in assay [6] was over 100 µM throughout. The TGI in [7] and in assay [8] was over 100 µM throughout.
On to `COC(CN1C=C(Sc2ccccc2)CC1)OC`, for which the TGI in assay [1] is 71 µM; in [2], over 100 µM; in assay [3], over 100 µM; in assay [4], over 100 µM; in assay [5], 47.9 µM; in [6], 47.4 µM. For the same compound, the TGI in [7] is over 100 µM; in assay [8], 97.7 µM.
Regarding `C/C=C(\C)c1cc(O)c(C)c2c1Oc1cc(O)c(Cl)c(C)c1C(=O)O2`, the TGI in assay [1] worked out at 32.4 µM; in assay [2] it was 74 µM; in assay [3] it was 26.5 µM; in assay [4] it was 30.9 µM; in [5], 37.4 µM; in assay [6], 49.3 µM. The TGI in [7] turned out to be 35.2 µM; in assay [8], 81.8 µM.
On to `COC(=O)C(C)(C)N=CN(C)C`, for which the TGI in assay [1], in assay [2], in [3], in assay [4], in [5] and in assay [6] was over 100 µM in each case. Further, the TGI in assay [7] and in assay [8] was over 100 µM in each case.
Turning to `CCOC1=C2N=C(Cc3ccccc3F)N=C2C(=O)c2ccccc21`, the TGI in [1], in assay [2], in [3], in [4], in assay [5] and in assay [6] was over 100 µM in each case. Besides, the TGI in assay [7] and in assay [8] was over 100 µM in each case.
Take `C=C1CCC2[C@@H](CCC3[C@]2(C)CCC[C@]3(C)C(=O)OC)[C@@H]1CC=O` (some centres not stated): the GI50 in [1] was 50.2 µM; in assay [2], 62 µM. In addition, the TGI in assay [1] was over 100 µM; in [2], over 100 µM; in assay [3], over 100 µM; in assay [4], over 100 µM; in assay [5], 37.6 µM; in assay [6] it was over 100 µM. In addition, the TGI in [7] worked out at 62.7 µM; in assay [8], 49 µM.
On to `CC(C)c1c2[nH]c3ccccc3c2c(C(C)C)c2[nH]c3ccccc3c12`, for which the TGI in assay [1], in assay [2], in assay [3], in assay [4], in [5] and in assay [6] was over 100 µM throughout. The TGI in assay [7] and in assay [8] was over 100 µM throughout.
`CNS(=O)(=O)NNS(=O)(=O)c1ccc(Cl)cc1`: the TGI in assay [1], in [2], in [3], in [4], in [5] and in assay [6] was over 100 µM in each case. The TGI in assay [7] and in [8] was over 100 µM in each case.
Regarding `CCO/C=C1\N=C(c2ccccc2Br)OC1=O`, the TGI in assay [1], in assay [2], in assay [3], in assay [4], in assay [5] and in [6] was over 100 µM in each case. For the same compound, the TGI in [7] and in [8] was over 100 µM in each case.
For the compound `COc1cc(-c2cc(-c3cc([N+](=O)[O-])c(/C=N/NC(=O)c4ccncc4)o3)ccc2OC)ccc1C`, the TGI in [1], in [2], in [3], in assay [4], in assay [5] and in [6] was over 100 µM throughout. Moreover, the TGI in assay [7] and in [8] was over 100 µM throughout.
Consider `CCOC(=O)C(=O)Nc1cc(Cl)ccc1Cl`, for which the TGI in [1], in [2], in assay [3], in assay [4], in assay [5] and in [6] was over 100 µM throughout. The TGI in assay [7] and in assay [8] was over 100 µM each time.
As for `COc1cc2nc(NCCCCCNC(=O)c3ccco3)nc(N)c2cc1OC`, the TGI was over 100 µM in assay [1]; over 100 µM in [2]; 38.2 µM in [3]; over 100 µM in assay [4]; 58.1 µM in assay [5]; 38.2 µM in assay [6]. Further, the TGI in [7] was over 100 µM; in [8] it was 61.4 µM.
Take `COCCOCOc1ccc(OCOCCOC)c2c1C(=O)c1ccccc1C2=O`: the TGI in [1], in [2], in assay [3], in assay [4], in [5] and in assay [6] was over 100 µM each time. Also, the TGI is over 100 µM in assay [7] and 39 µM in [8].
Take `Fc1cccc(C2SCc3nc4ccccc4n32)c1F` (configuration not stated): the TGI in assay [1], in [2], in assay [3], in assay [4], in assay [5] and in [6] was over 100 µM in each case. Also, the TGI in assay [7] and in assay [8] was over 100 µM each time.
With `Cc1cc(N(CCC#N)CCC#N)ccc1/C=C1N=C(/C=C\c2ccccc2)N(c2ccc(Cl)cc2)C\1=O`, the TGI in assay [1], in assay [2], in assay [3], in assay [9], in [4] and in [5] was over 100 µM in each case. In addition, the TGI is over 100 µM in assay [10], 5.06 µM in [6], over 31.9 µM in assay [7] and over 82.7 µM in assay [8].
In the case of `CC1CN1c1c(C(=O)/C=C/c2ccccc2)c(-c2ccccc2)nn(C)c1=O` (configuration not stated), the TGI was 46.8 µM in [1]; 70.5 µM in assay [2]; 29.9 µM in assay [3]; 32.6 µM in assay [4]; 39.8 µM in assay [5]; 29.7 µM in [6]. For the same compound, the TGI in [7] stood at 36.2 µM; in [8], 35.1 µM.

(Values after PubChem BioAssay (NCI).)
